Reference: patent US20230302140A1, “CONJUGATE OF A SINGLE DOMAIN ANTIBODY, A SAPONIN AND AN EFFECTOR MOLECULE, PHARMACEUTICAL COMPOSITION COMPRISING THE SAME, THERAPEUTIC USE OF SAID PHARMACEUTICAL COMPOSITION” (SAPREME TECHNOLOGIES B.V., priority 2020, published 2023)

Experiments:
[1] = target: human EGFR (human) (UniProt P00533); assay: cell-based or functional assay
[2] = test system: endosomal acidification; assay: Cell viability assay with endosomal acidification inhibitors; type: cell-based; conditions: targeted 2-component system; chloroquine or bafilomycin A1
Description: (§1) Cells were seeded in a 96 well plate at 5.000-1 0.000 c/w in 100 µL/well and incubated overnight at 37° C. […] The media was removed from the cell culture plate and replaced by 180 µL culture media, followed by the addition of 20 µL treatment-mix/well. […] In the case that endosomal acidification inhibitors (chloroquine (Sigma Aldrich) or bafilomycin A1 (Enzo Life Sciences)) were used, the cell culture media in step 1 of treatment was replaced by 180 µL media containing 1 µM chloroquine or 0.2 µM bafilomycin A1. The plate was incubated for 1 hour at 37° C., before the 10x treatment-mix samples were added. The remaining incubation and treatment steps were performed according to standard procedures known in the field.

[3] = test system: CaSki cells; assay: Cell killing (MTS cell viability) assay; type: cell-based, human
Description: as §1
(§2) After treatment the cells were incubated for 72 hr at 37° C. before the cell viability was determined by a MTS-assay, performed according to the manufacturer’s instruction (CellTiter 96® AQueous One Solution Cell Proliferation Assay, Promega). Briefly, the MTS solution was diluted 20x in DMEM without phenol red (PAN-Biotech GmbH) supplemented with 10% FBS (PAN-Biotech GmbH). The cells were washed once with 200 µL PBS per well, after which 100 µL diluted MTS solution was added per well. The plate was incubated for approximately 20-30 minutes at 37° C. Subsequently, the optical density at 492 nm was measured on a Thermo Scientific Multiskan FC plate reader (Thermo Scientific). For quantification the background signal of ‘medium only’ wells was subtracted from all other wells, before the ratio of […].

[4] = test system: SK-BR-3 cells; assay: Cell killing (MTS cell viability) assay; type: cell-based, human
Description: (§3) After treatment the cells were incubated for 72 hr at 37° C. before the cell viability was determined by a MTS-assay, performed according to the manufacturer’s instruction (CellTiter 96® AQueous One Solution Cell Proliferation Assay, Promega). Briefly, the MTS solution was diluted 20× in DMEM without phenol red (PAN-Biotech GmbH) supplemented with 10% FBS. The cells were washed once with 200 µL/PBS well, after which 100 µL diluted MTS solution was added/well. The plate was incubated for approximately 20-30 minutes at 37° C. Subsequently, the OD at 492 nm was measured on a Thermo Scientific Multiskan FC plate reader (Thermo Scientific). For quantification the background signal of ‘medium only’ wells was subtracted from all other wells, before the cell viability percentage of treated/untreated cells was calculated, by dividing the background corrected signal of treated wells over the background corrected signal of the untreated wells (x 100).
as §1, §2

[5] = test system: MDA-MB-468 cells; assay: Cell killing (MTS cell viability) assay; type: cell-based, human
Description: as §3, §1, §2

[6] = test system: A2058 cells; assay: Cell killing (MTS cell viability) assay; type: cell-based, human
Description: as §3, §1, §2

[7] = test system: JIMT-1 cells; assay: Cell killing (MTS cell viability) assay; type: cell-based, human; conditions: +1500 nM SO1861 (unconjugated)
Description: as §1, §2

[8] = test system: HeLa cells; assay: Cell killing (MTS cell viability) assay; type: cell-based, human; conditions: +1500 nM SO1861 (unconjugated)
Description: as §1, §2

[9] = +50 pM CD71VHH-dianthin (fixed)
[10] = +50 pM VHH-EGFR-dianthin (fixed)
[11] = +50 pM VHH-HER2-dianthin (fixed)

Work on “cetuximab-saporin (monoclonal antibody recognizing and binding EGFR, conjugated to the protein toxin, saporin)” yielded a cell killing (MTS) on MDA-MB-468 cells (EGFR++), cetuximab-saporin alone, IC50 [1] of 0.3 nM.
For CC(=O)O[C@H]1[C@H](O[C@@H]2OC[C@@H](O)[C@H](O)[C@H]2O)[C@@H](O)[C@H](O[C@@H]2[C@H](O)[C@@H](O[C@@H]3O[C@@H](C)[C@H](O[C@@H]4OC[C@@H](O)[C@H](O[C@@H]5O[C@H](CO)[C@@H](O)[C@H](O)[C@H]5O)[C@H]4O)[C@@H](O)[C@H]3O)[C@H](OC(=O)[C@]34CCC(C)(C)C[C@H]3C3=CC[C@@H]5[C@@]6(C)CC[C@H](O[C@@H]7O[C@H](C(=O)O)[C@@H](O)[C@H](O[C@@H]8OC[C@@H](O)[C@H](O)[C@H]8O)[C@H]7O[C@@H]7O[C@H](CO)[C@H](O)[C@H](O)[C@H]7O)[C@@](C)(C=O)[C@@H]6CC[C@@]5(C)[C@]3(C)C[C@H]4O)O[C@@H]2C)O[C@@H]1C [SO1861], the “SO1861 function with endosomal acidification inhibitors” value [2] was “function is reduced when acidification of endosomes is blocked”, the IC50 ([3]; +10 pM cetuximab-saporin (fixed), calculated on concentration SO1861) was 700 nM and the IC50 ([3]; +50 pM trastuzumab-saporin (fixed), Ex.9/Table A6: calculated on concentration SO1861) was no less than 1000 nM. For the same compound, the IC50 ([4]; +1.5 pM EGF-dianthin (fixed), Ex.9/Table A6: calculated on concentration SO1861) was 800 nM, the IC50 ([4]; +10 pM EGF-dianthin (fixed), Table A6: calculated on concentration SO1861) was 650 nM and the IC50 [4, 9] was 200 nM. It also gave an IC50 [4, 10] of 700 nM, an IC50 [4, 11] of 200 nM and an IC50 [5, 9] of 200 nM. For the same compound, the IC50 [5, 10] was 300 nM, the IC50 cell killing [5, 11] was “no enhanced activity compared to SO1861alone” and the IC50 ([6]; +50 pM VHH-CD71-dianthin (fixed)) was 200 nM. The IC50 cell killing [6, 10] was “no activity”.
Work on Saporin yielded an IC50 [7] of 0.03 nM, an IC50 ([3]; +1500 nM SO1861 (unconjugated)) of 0.015 nM and an IC50 [8] of 0.03 nM.
